Experimental data taken from patent US8822449B2, “Substituted aminoindanes and analogs thereof, and the pharmaceutical use thereof” (Sanofi, priority 2008, dated 2014).

Target: T1, sodium-proton exchanger of subtype 3 (NHE3) (Homo sapiens, UniProt P48764)
T1 construct: expressed in transfected cells
T1 sequence (P48764 26-834): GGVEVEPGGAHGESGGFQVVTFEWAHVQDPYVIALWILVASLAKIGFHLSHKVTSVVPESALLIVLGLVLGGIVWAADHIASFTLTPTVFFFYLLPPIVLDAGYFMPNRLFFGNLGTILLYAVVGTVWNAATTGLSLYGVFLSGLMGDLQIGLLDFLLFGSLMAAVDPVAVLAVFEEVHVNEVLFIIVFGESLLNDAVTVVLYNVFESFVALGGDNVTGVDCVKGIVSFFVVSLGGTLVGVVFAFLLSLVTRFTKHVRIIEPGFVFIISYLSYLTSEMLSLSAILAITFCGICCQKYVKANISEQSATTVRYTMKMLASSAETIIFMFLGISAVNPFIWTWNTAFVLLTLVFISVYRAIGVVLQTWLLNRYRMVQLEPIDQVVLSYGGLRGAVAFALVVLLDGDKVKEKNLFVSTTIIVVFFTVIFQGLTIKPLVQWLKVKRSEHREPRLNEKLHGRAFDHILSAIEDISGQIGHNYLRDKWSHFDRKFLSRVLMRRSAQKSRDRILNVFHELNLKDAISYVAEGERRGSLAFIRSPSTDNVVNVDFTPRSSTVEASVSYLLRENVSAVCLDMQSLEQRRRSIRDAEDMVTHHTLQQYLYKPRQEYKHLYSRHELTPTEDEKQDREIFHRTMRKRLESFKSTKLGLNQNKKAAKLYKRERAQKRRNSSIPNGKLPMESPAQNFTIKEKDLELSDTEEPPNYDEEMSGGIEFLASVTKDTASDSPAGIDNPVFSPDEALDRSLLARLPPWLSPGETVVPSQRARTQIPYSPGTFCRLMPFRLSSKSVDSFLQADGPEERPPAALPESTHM
Assay: Recovery of intracellular pH (pHi) after acidification in LAP1 cells stably expressing NHE3 (BCECF fluorescence, FLIPR)
Type: cell-based
Conditions: LAP1 cells stably expressing NHE3; pH recovery after acidification; range 1 is % inhibition at 10 μM; read-out: Activity range (inhibitory effect on NHE3)

Compound COc1ccc(O[C@H]2c3ccccc3CC[C@@H]2N2CCC[C@@H](N)C2)c(F)c1 (racemic) [Example 42, (R)-1-[rac-trans-(1,2)-1-(2-fluoro-4-methoxyphenoxy)-1,2,3,4-tetrahydronaphthalen-2-yl]piperidin-3-ylamine] has an inhibition at 10 µM of 20 to 50%.

For COc1cccc(F)c1O[C@@H]1c2ccccc2C[C@H]1N1CCC(CN)C1 (mixture of isomers) [Example 605, C-{1-[rac-trans-(1,2)-1-(2-fluoro-6-methoxyphenoxy)indan-2-yl]pyrrolidin-3-yl}methylamine], the IC50 was 1000 to 10000 nM.

In the case of CCOc1cccc(O[C@@H]2c3ccccc3C[C@H]2N2CCC(CN)C2)c1 (mixture of isomers) [Example 615, C-{1-[rac-trans-(1,2)-1-(3-ethoxyphenoxy)indan-2-yl]pyrrolidin-3-yl}methylamine], the IC50 is reported as 1000 to 10000 nM.

With N#Cc1ccc(O[C@H]2c3cc(Cl)cc(Cl)c3C[C@@H]2N2CCC[C@@H](N)C2)c(F)c1 [Example 479, 4-[(1S,2S)-2-((R)-3-aminopiperidin-1-yl)-4,6-dichloroindan-1-yloxy]-3-fluorobenzonitrile] the IC50 was less than 1000 nM.

Work on CN(C1CCCNC1)[C@@H]1Cc2ccccc2[C@H]1Oc1cccc2[nH]ccc12 (mixture of isomers) [Example 214, [rac-trans-(1,2)-1-(1H-indol-4-yloxy)indan-2-yl]methylpiperidin-3-ylamine] yielded an IC50 of 1000 to 10000 nM.

Work on O=C1CNC(=O)N1c1ccc(Cl)c(O[C@H]2c3cc(Cl)cc(F)c3C[C@@H]2N2CC[C@@H](O)C2)c1 [Example 438, 3-{4-chloro-3-[(1S,2S)-6-chloro-4-fluoro-2-((R)-3-hydroxypyrrolidin-1-yl)indan-1-yloxy]phenyl}imidazolidine-2,4-dione] yielded an IC50 of 1000 to 10000 nM.

Compound CS(=O)(=O)c1ccc(O[C@H]2c3cc(Cl)cc(Cl)c3C[C@@H]2N2CCCC(NCCO)C2)cc1 (stereo partly drawn) [Example 379, 2-{(R)-1-[trans-(1S,2S)-4,6-dichloro-1-(4-methanesulfonylphenoxy)indan-2-yl]piperidin-3-ylamino}-ethanol] has an IC50 of less than 1000 nM.

CC(=O)Nc1cccc(O[C@H]2c3ccccc3C[C@@H]2N2CCNCC2)c1 (racemic) [Example 639, N-[3-(rac-trans-(1,2)-2-piperazin-1-ylindan-1-yloxy)phenyl]acetamide] showed an inhibition at 10 µM of 20 to 50%.

Work on CN1CCN([C@H]2Cc3c(Cl)cc(Cl)cc3[C@@H]2Oc2ccc(S(C)(=O)=O)cc2)CC1 [Example 306, 1-[trans-(1S,2S)-4,6-dichloro-1-(4-methanesulfonylphenoxy)indan-2-yl]-4-methylpiperazine] yielded an IC50 of 1000 to 10000 nM.

COCCc1ccc(O[C@@H]2c3ccccc3C[C@H]2N2CCC[C@@H](N)C2)cc1 (racemic) [Example 116, (R)-1-{rac-trans-(1,2)-1-[4-(2-methoxyethyl)phenoxy]indan-2-yl}piperidin-3-ylamine] showed an IC50 of 1000 to 10000 nM.

Compound NS(=O)(=O)c1ccc(O[C@H]2c3ccccc3C[C@@H]2NCc2ccccc2)c(F)c1 (racemic) [Example 459, 4-(2-benzylaminoindan-1-yloxy)-3-fluorobenzenesulfonamide] has an inhibition at 10 µM of 20 to 50%.

For N[C@@H]1CCCN([C@H]2CCc3ccccc3[C@@H]2Oc2ccc(Cl)cc2)C1 (racemic) [Example 66, (R)-1-[rac-trans-(1,2)-1-(4-chlorophenoxy)-1,2,3,4-tetrahydronaphthalen-2-yl]piperidin-3-ylamine], the inhibition at 10 µM was 20 to 50%.

Work on Cc1nnc(C)n1-c1cccc(O[C@H]2c3ccccc3C[C@@H]2N2CCCC2)c1 (racemic) [Example 404, 3,5-dimethyl-4-[3-(rac-trans-(1,2)-2-pyrrolidin-1-ylindan-1-yloxy)phenyl]-4H-[1,2,4]triazole] yielded an inhibition at 10 µM of 20 to 50%.

N[C@@H]1CCCN([C@H]2CCc3ccccc3[C@@H]2Oc2ccc3ccncc3c2)C1 (racemic) [Example 84, (R)-1-[rac-trans-(1,2)-1-(isoquinolin-7-yloxy)-1,2,3,4-tetrahydronaphthalen-2-yl]piperidin-3-ylamine] gave an IC50 of less than 1000 nM.

With NS(=O)(=O)c1ccc(O[C@H]2c3cc(Cl)cc(Cl)c3C[C@@H]2NC2CCCC2)c(F)c1 [Example 748, 4-(trans-(1S,2S)-4,6-Dichloro-2-cyclopentylamino-indan-1-yloxy)-3-fluoro-benzenesulfonamide] the IC50 was 1000 to 10000 nM.

For Cc1nn(C)c(C)c1-c1ccc(O[C@H]2c3cc(Cl)cc(Cl)c3C[C@@H]2N2CC[C@@H](O)C2)cc1 [Example 124, (R)-1-{trans-(1S,2S)-4,6-dichloro-1-[4-(1,3,5-trimethyl-1H-pyrazol-4-yl)phenoxy]indan-2-yl}pyrrolidin-3-ol], the IC50 was 1000 to 10000 nM.

Work on N[C@H]1CCCN([C@H]2CCc3ccccc3[C@@H]2Oc2ccc(F)c3cccnc23)C1 (racemic) [Example 188, (S)-1-[rac-trans-(1,2)-1-(5-fluoroquinolin-8-yloxy)-1,2,3,4-tetrahydronaphthalen-2-yl]piperidin-3-ylamine] yielded an IC50 of 1000 to 10000 nM.

O=C1CCCN1c1ccc(O[C@H]2c3cc(Cl)cc(Cl)c3C[C@@H]2N2CC[C@@H](O)C2)cc1 [Example 333, 1-{4-[trans-(1S,2S)-4,6-dichloro-2-((R)-3-hydroxypyrrolidin-1-yl)indan-1-yloxy]phenyl}pyrrolidin-2-one] showed an IC50 of less than 1000 nM.

Cc1noc(C)c1-c1ccc(O[C@H]2c3cc(Cl)cc(Cl)c3C[C@@H]2N2CC[C@@H](O)C2)cc1 [Example 135, (R)-1-{trans-(1S,2S)-4,6-dichloro-1-[4-(3,5-dimethylisoxazol-4-yl)phenoxy]indan-2-yl}pyrrolidin-3-ol] showed an inhibition at 10 µM of 20 to 50%.

With N[C@H]1CCCN([C@H]2CCc3ccccc3[C@@H]2Oc2cccc(Cl)c2)C1 (racemic) [Example 165, (S)-1-[rac-trans-(1,2)-1-(3-chlorophenoxy)-1,2,3,4-tetrahydronaphthalen-2-yl]piperidin-3-ylamine] the inhibition at 10 µM was 20 to 50%.

N[C@@H]1CCCN([C@H]2CCc3ccccc3[C@@H]2Oc2ccc(F)c3cccnc23)C1 (racemic) [Example 79, (R)-1-[rac-trans-(1,2)-1-(5-fluoroquinolin-8-yloxy)-1,2,3,4-tetrahydronaphthalen-2-yl]piperidin-3-ylamine] gave an IC50 of less than 1000 nM.

With COCCc1ccc(O[C@@H]2c3ccccc3C[C@H]2N2C[C@H]3CNC[C@H]3C2)cc1 (racemic) [Example 19, 2-{rac-trans-(1,2)-1-[4-(2-methoxyethyl)phenoxy]indan-2-yl}octahydropyrrolo[3,4-c]pyrrole] the IC50 was 1000 to 10000 nM.

In the case of NS(=O)(=O)c1ccc(O[C@H]2c3cc(Cl)ccc3C[C@@H]2N2CCCC2)cc1 (racemic) [Example 473, 4-(rac-trans-(1,2)-6-chloro-2-pyrrolidin-1-ylindan-1-yloxy)benzenesulfonamide], the IC50 is reported as less than 1000 nM.

NCC1CCN([C@@H]2Cc3ccccc3[C@H]2Oc2ccc(NC(=O)OCc3ccccc3)cc2)C1 (mixture of isomers) [Example 240, {4-[rac-trans-(1,2)-2-(3-aminomethylpyrrolidin-1-yl)indan-1-yloxy]phenyl}carbamic acid benzyl ester] gave an IC50 of 1000 to 10000 nM.

In the case of N[C@H]1CCCN([C@H]2CCc3ccccc3[C@@H]2Oc2cccc3ccc(Cl)nc23)C1 (racemic) [Example 154, (S)-1-[rac-trans-(1,2)-1-(2-chloroquinolin-8-yloxy)-1,2,3,4-tetrahydronaphthalen-2-yl]piperidin-3-ylamine], the IC50 is reported as 1000 to 10000 nM.

COc1cccc(F)c1O[C@@H]1c2ccccc2C[C@H]1N1CCC(N)C1 (mixture of isomers) [Example 266, 1-[rac-trans-(1,2)-1-(2-fluoro-6-methoxyphenoxy)indan-2-yl]pyrrolidin-3-ylamine] gave an IC50 of 1000 to 10000 nM.

Work on CS(=O)(=O)c1nccn1-c1ccc(O[C@H]2c3cc(Cl)cc(F)c3C[C@@H]2NC2CCCC2)c(F)c1 [Example 754, {trans-(1S,2S)-6-Chloro-4-fluoro-1-[2-fluoro-4-(2-methanesulfonyl-imidazol-1-yl)-phenoxy]-indan-2-yl}-cyclopentyl-amine] yielded an IC50 of less than 1000 nM.

Work on CS(=O)(=O)c1ccc(O[C@H]2c3ccccc3CC[C@@H]2N2CCC[C@H](N)C2)cc1 (racemic) [Example 182, (S)-1-[rac-trans-(1,2)-1-(4-methanesulfonylphenoxy)-1,2,3,4-tetrahydronaphthalen-2-yl]piperidin-3-ylamine] yielded an IC50 of 1000 to 10000 nM.

Compound NCC1CCN([C@@H]2Cc3ccccc3[C@H]2Oc2cccc(C(N)=O)c2)C1 (mixture of isomers) [Example 414, 3-[rac-trans-(1,2)-2-(3-aminomethylpyrrolidin-1-yl)indan-1-yloxy]benzamide] has an IC50 of 1000 to 10000 nM.

With Cc1cc(C)c2cccnc2c1O[C@H]1c2ccccc2CC[C@@H]1N1CCC[C@@H](N)C1 (racemic) [Example 78, (R)-1-[rac-trans-(1,2)-1-(5,7-dimethylquinolin-8-yloxy)-1,2,3,4-tetrahydronaphthalen-2-yl]piperidin-3-ylamine] the inhibition at 10 µM was 20 to 50%.

Compound Cc1nnc(C)n1-c1ccc(O[C@H]2c3cc(F)cc(F)c3C[C@@H]2N2CC[C@@H](O)C2)c(Cl)c1 [Example 109, (R)-1-{(1S,2S)-1-[2-chloro-4-(3,5-dimethyl-[1,2,4]triazol-4-yl)phenoxy]-4,6-difluoroindan-2-yl}pyrrolidin-3-ol] has an IC50 of less than 1000 nM.
